Molecular target: T1, RBL Cell 5-Lipoxygenase (Rattus norvegicus, UniProt P12527)
T1 construct: RBL Cell 5-Lipoxygenase; endogenous in cells; host or cells: RBL cells
T1 sequence (P12527 1-673): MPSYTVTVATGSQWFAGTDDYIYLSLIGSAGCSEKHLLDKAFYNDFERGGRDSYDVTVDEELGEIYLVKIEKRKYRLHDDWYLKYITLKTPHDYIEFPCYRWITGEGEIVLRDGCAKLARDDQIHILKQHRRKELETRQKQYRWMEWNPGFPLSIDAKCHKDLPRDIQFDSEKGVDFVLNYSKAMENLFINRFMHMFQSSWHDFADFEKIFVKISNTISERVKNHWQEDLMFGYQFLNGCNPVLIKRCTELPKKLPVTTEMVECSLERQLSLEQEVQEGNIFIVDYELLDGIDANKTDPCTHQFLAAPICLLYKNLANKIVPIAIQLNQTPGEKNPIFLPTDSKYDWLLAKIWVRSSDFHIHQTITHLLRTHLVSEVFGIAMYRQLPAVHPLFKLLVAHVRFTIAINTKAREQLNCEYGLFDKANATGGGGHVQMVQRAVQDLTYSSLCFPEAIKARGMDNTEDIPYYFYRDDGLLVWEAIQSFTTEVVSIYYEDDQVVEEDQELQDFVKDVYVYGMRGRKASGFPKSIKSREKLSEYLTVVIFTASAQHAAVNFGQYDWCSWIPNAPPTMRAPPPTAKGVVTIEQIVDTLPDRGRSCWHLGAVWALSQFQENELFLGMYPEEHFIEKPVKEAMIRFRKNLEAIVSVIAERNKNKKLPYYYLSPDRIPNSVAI
Assay: Inhibition of RBL Cell 5-Lipoxygenase
Format: biochemical
Conditions: read-out: Percent Inhibition (conc.)
Source text: Protocol published in R. W. Egan et al., "Advances in Prostaglandin, Thromboxane, and Leukotriene Research," Vol. 11 (edited by B. Samuelson et al., Raren Press, N.Y., 1983), p. 151.

Row | SMILES | inhibition at 15 µM [%] | other results
1 | CCCCc1sc2ccc(Cl)cc2c1OC(C)=O [Example 1, 3-Acetoxy-2-Butyl-5-Chlorobenzo[b]thiophene] | > 95 | –
2 | CC(=O)Oc1c(Cc2ccccc2)sc2ccc(Cl)cc12 [Example 2, 3-Acetoxy-2-Benzyl-5-Chlorobenzo[b]thiophene] | > 95 | –
3 | Oc1c(-c2ccccc2)sc2ccc(C(F)(F)F)cc12 [Example 4, 3-Hydroxy-2-phenyl-5-trifluoromethylbenzo[b]thiophene] | – | inhibition at 5 µM (5 μM): > 95%
4 | CC(=O)Oc1c(-c2ccccc2)sc2ccc(C(F)(F)F)cc12 [Example 5, 3-Acetoxy-2-Phenyl-5-Trifluoromethylbenzo[b]thiophene] | > 95 | –
5 | CC(=O)Oc1cccc2sc(-c3ccccc3)c(OC(C)=O)c12 [Example 7, 3,4-Diacetoxy-2-Phenylbenzo[b]thiophene] | – | inhibition at 1 µM: > 95%
6 | Cc1cccc(-c2sc3ccc(C(F)(F)F)cc3c2O)c1 [Example 16, 3-Hydroxy-2-(m-methylphenyl)-5-trifluoromethylbenzo[b]thiophene] | – | inhibition at 1 µM: > 95%
7 | COC(=O)C=Cc1sc2ccccc2c1O [Example 20, Methyl 3-(3-hydroxybenzo[b]thiophen-2-yl)acrylate] | – | inhibition at 3.6 µM (3.6 μM): 100%
8 | COC(=O)C=Cc1sc2ccccc2c1OC(C)=O [Example 21, Methyl 3(3-acetoxybenzo[b]thiophen-2-yl)acrylate] | – | inhibition at 0.036 µM (0.036 μM): 71%
9 | COC(=O)CCc1sc2ccc(C(F)(F)F)cc2c1OC(C)=O [Example 22] | – | inhibition at 0.06 µM (0.06 μM): > 95%
10 | CC(=O)Oc1c(C)sc2ccc(C(F)(F)F)cc12 [Example 23, 2-Methyl-3-Acetoxy-5-trifluoromethylbenzo[b]thiophene] | – | inhibition at 0.4 µM (0.4 μM): 100%
11 | CC(=O)Oc1c(CSc2nc(-c3ccccc3)c(-c3ccccc3)[nH]2)sc2ccccc12 [Example 25, 2-(3-acetoxybenzo[b]thien-2-ylmethyl)thio-4,5-diphenylimidazole] | – | inhibition at 22 µM: 52%
12 | CC(=O)Oc1c(C=C(c2ccccc2)c2ccccc2)sc2ccc(C(F)(F)F)cc12 [Example 27, 2-(2,2-diphenylethenyl)-3-acetoxy-5-trifluoromethyl benzo[b]thiophene] | – | inhibition at 22 µM: 95%

The next lines start with results.

Row | inhibition at 15 µM [%] | SMILES | other results
13 | > 95 | COc1cccc2sc(-c3ccccc3)c(O)c12 [Example 6, 3-Hydroxy-4-Methoxy-2-Phenylbenzo[b]thiophene] | –
14 | > 95 | Oc1cccc2sc(-c3ccccc3)c(O)c12 [Example 8, 3,4-dihydroxy-2-phenylbenzo[b]thiophene] | –
15 | > 95 | Oc1c(-c2cccc(C(F)(F)F)c2)sc2ccc(C(F)(F)F)cc12 [Example 11, 3-Hydroxy-5-Trifluoromethyl-2-(m-trifluoromethylphenyl)-Benzo[b]thiophene] | –
16 | > 95 | Oc1c(-c2cccc(Cl)c2)sc2ccc(C(F)(F)F)cc12 [Example 12, 3-Hydroxy-2-(m-chlorophenyl)-5-trifluoromethyl-benzo[b]thiophene] | –
17 | > 95 | COc1ccc(-c2sc3ccc(C(F)(F)F)cc3c2O)cc1 [Example 15, 3-Hydroxy-2-(p-methoxyphenyl)-5-trifluoromethylbenzo[b]thiophene] | –
18 | > 95 | Oc1c(-c2ccccc2)sc2ccc(Cl)cc12 [Example 18, 5-Chloro-3-hydroxy-2-phenylbenzo[b]thiophene] | –
